# From patent US20220323445A1, “REDUCING IMMUNOGENICITY TO PEGLOTICASE” (Horizon Therapeutics Ireland DAC, priority 2020, published 2022)
# Where two headings read alike, the source gives them in different places.
# Tested on: patients with uncontrolled gout
# From the text: As used herein, an “adverse event” or “AE” refers to any untoward medical occurrence associated with the use of a drug in humans, whether it is considered drug-related or not. An AE or suspected adverse reaction is considered a “serious adverse event” or “SAE” if, in the view of either the Investigator or Sponsor, it results in any of the following outcomes: (1) Death, (2) Life-threatening: an AE is considered “life-threatening” if, in the view of either the Investigator or Sponsor, its occurrence places the subject or subject at immediate risk of death. […] (5) A congenital anomaly/birth defect; (6) Important medical events that may not result in death, be life-threatening, or require hospitalization may be considered serious when, based upon appropriate medical judgment, they may jeopardize the patient or subject and may require medical or surgical intervention to prevent one of the outcomes listed in this definition.
# Safety Variables: Safety was assessed via AE and concomitant medication use monitoring, physical examinations, vital signs, clinical safety laboratory evaluations (hematology, chemistry, urine uric acid:creatinine ratio), pregnancy testing (if applicable), electrocardiograms (ECGs), and AEs of special interest (i.e., IRs, anaphylaxis, gout flares, and cardiovascular events).
# AEs of special interest may include IRs, anaphylaxis, gout flares, and cardiovascular events.
# Severity in accordance with the disclosure is reported according to the following: Grade 1 (Mild)—No interference with daily activity. Grade 2 (Moderate)—Some interference with daily activity but medical intervention not required (e.g., doctor visit and/or medication); over the counter medicine permitted. Grade 3 (Severe)—Prevents daily activity and requires medical intervention (e.g., doctor visit and/or medication). Grade 4 (Potentially Life-threatening)—Emergency room visit or hospitalization.
# An AE was defined as any untoward event, whether or not it was considered related to the use of pegloticase or MTX. Any worsening (i.e., any clinically significant adverse change in frequency or intensity) of a preexisting condition which was temporally associated with the use of pegloticase or MTX was also considered an AE. Abnormal laboratory values or test results constitute AEs only if they induce clinical signs or symptoms or require therapy, and were recorded on the AE CRF under the signs, symptoms or were associated with diagnoses associated with them. Screening conditions were not considered AE; however, worsening of a preexisting condition may be considered an AE. AEs were collected starting at the baseline, Visit 1.
# TEAEs during the Pegloticase+IMM Period were defined as events that occur after the start of the first pegloticase infusion through 30 days after the last dose of pegloticase and/or MTX or placebo for MTX (whichever was later). TEAEs that occur during the MTX Tolerability Assessment Period prior to randomization (Weeks −6 to −4) was summarized separately for the MTX population. […] AEs that occur more than 30 days after the last dose of pegloticase and/or MTX or placebo for MTX through the 6-month follow-up visit was also summarized.
compound,measurement,setting,value
"CN(Cc1cnc2nc(N)nc(N)c2n1)c1ccc(C(=O)N[C@@H](CCC(=O)O)C(=O)O)cc1 [MTX, methotrexate]","Infections And Infestations, %",,(13.3) %
same,"Infections And Infestations, Incidence Rate",,1.8 Events/PY of MTX
same,"Infections And Infestations, Total Events",,2
same,"Blood And Lymphatic System Disorders, %",ITT N = 15,(6.7) %
same,"Chronic Sinusitis, %",ITT N = 15,(6.7) %
same,"Cough, %",ITT N = 15,(6.7) %
same,"Dental Caries, %",ITT N = 15,(6.7) %
same,"Diarrhoea, %",ITT N = 15,(6.7) %
same,"Dry Eye, %",ITT N = 15,(6.7) %
same,"Eye Disorders, %",ITT N = 15,(6.7) %
same,"Headache, %",ITT N = 15,(6.7) %
same,"Leukopenia, %",ITT N = 15,(6.7) %
same,"Nasopharyngitis, %",ITT N = 15,(6.7) %
same,"Nervous System Disorders, %",ITT N = 15,(6.7) %
same,"Neutropenia, %",ITT N = 15,(6.7) %
same,"Pruritus, %",ITT N = 15,(6.7) %
same,"Respiratory, Thoracic And Mediastinal Disorders, %",ITT N = 15,(6.7) %
same,"Skin And Subcutaneous Tissue Disorders, %",ITT N = 15,(6.7) %
same,"Abdominal Discomfort, Incidence Rate","ITT N = 15, PY of MTX = 1.1",1.8 Events/PY of MTX
same,"Blood And Lymphatic System Disorders, Incidence Rate","ITT N = 15, PY of MTX = 1.1",1.8 Events/PY of MTX
same,"Chronic Sinusitis, Incidence Rate","ITT N = 15, PY of MTX = 1.1",0.9 Events/PY of MTX
same,"Cough, Incidence Rate","ITT N = 15, PY of MTX = 1.1",0.9 Events/PY of MTX
same,"Dental Caries, Incidence Rate","ITT N = 15, PY of MTX = 1.1",0.9 Events/PY of MTX
same,"Diarrhoea, Incidence Rate","ITT N = 15, PY of MTX = 1.1",0.9 Events/PY of MTX
same,"Dry Eye, Incidence Rate","ITT N = 15, PY of MTX = 1.1",0.9 Events/PY of MTX
same,"Eye Disorders, Incidence Rate","ITT N = 15, PY of MTX = 1.1",0.9 Events/PY of MTX
same,"Gastrointestinal Disorders, Incidence Rate","ITT N = 15, PY of MTX = 1.1",5.5 Events/PY of MTX
same,"Gout, Incidence Rate","ITT N = 15, PY of MTX = 1.1",5.5 Events/PY of MTX
same,"Headache, Incidence Rate","ITT N = 15, PY of MTX = 1.1",0.9 Events/PY of MTX
same,"Leukopenia, Incidence Rate","ITT N = 15, PY of MTX = 1.1",0.9 Events/PY of MTX
same,"Metabolism And Nutrition Disorders, Incidence Rate","ITT N = 15, PY of MTX = 1.1",5.5 Events/PY of MTX
same,"Nasopharyngitis, Incidence Rate","ITT N = 15, PY of MTX = 1.1",0.9 Events/PY of MTX
same,"Nausea, Incidence Rate","ITT N = 15, PY of MTX = 1.1",1.8 Events/PY of MTX
same,"Nervous System Disorders, Incidence Rate","ITT N = 15, PY of MTX = 1.1",0.9 Events/PY of MTX
same,"Neutropenia, Incidence Rate","ITT N = 15, PY of MTX = 1.1",0.9 Events/PY of MTX
same,"Pruritus, Incidence Rate","ITT N = 15, PY of MTX = 1.1",0.9 Events/PY of MTX
same,"Respiratory, Thoracic And Mediastinal Disorders, Incidence Rate","ITT N = 15, PY of MTX = 1.1",0.9 Events/PY of MTX
same,"Skin And Subcutaneous Tissue Disorders, Incidence Rate","ITT N = 15, PY of MTX = 1.1",0.9 Events/PY of MTX
same,"Blood And Lymphatic System Disorders, %",mITT N = 14,(7.1) %
same,"Chronic Sinusitis, %",mITT N = 14,(7.1) %
same,"Cough, %",mITT N = 14,(7.1) %
same,"Dental Caries, %",mITT N = 14,(7.1) %
same,"Diarrhoea, %",mITT N = 14,(7.1) %
same,"Dry Eye, %",mITT N = 14,(7.1) %
same,"Eye Disorders, %",mITT N = 14,(7.1) %
same,"Headache, %",mITT N = 14,(7.1) %
same,"Infections And Infestations, %",mITT N = 14,(14.3) %
same,"Infections And Infestations, Total Events",mITT N = 14,2
same,"Leukopenia, %",mITT N = 14,(7.1) %
same,"Nasopharyngitis, %",mITT N = 14,(7.1) %
same,"Nervous System Disorders, %",mITT N = 14,(7.1) %
same,"Neutropenia, %",mITT N = 14,(7.1) %
same,"Pruritus, %",mITT N = 14,(7.1) %
same,"Respiratory, Thoracic And Mediastinal Disorders, %",mITT N = 14,(7.1) %
same,"Skin And Subcutaneous Tissue Disorders, %",mITT N = 14,(7.1) %
same,"Abdominal Discomfort, Incidence Rate","mITT N = 14, PY of MTX = 1.0",2.0 Events/PY of MTX
same,"Any TEAEs, Incidence Rate","mITT N = 14, PY of MTX = 1.0",20.0 Events/PY of MTX
same,"Blood And Lymphatic System Disorders, Incidence Rate","mITT N = 14, PY of MTX = 1.0",2.0 Events/PY of MTX
same,"Chronic Sinusitis, Incidence Rate","mITT N = 14, PY of MTX = 1.0",1.0 Events/PY of MTX
same,"Cough, Incidence Rate","mITT N = 14, PY of MTX = 1.0",1.0 Events/PY of MTX
same,"Dental Caries, Incidence Rate","mITT N = 14, PY of MTX = 1.0",1.0 Events/PY of MTX
same,"Diarrhoea, Incidence Rate","mITT N = 14, PY of MTX = 1.0",1.0 Events/PY of MTX
same,"Dry Eye, Incidence Rate","mITT N = 14, PY of MTX = 1.0",1.0 Events/PY of MTX
same,"Eye Disorders, Incidence Rate","mITT N = 14, PY of MTX = 1.0",1.0 Events/PY of MTX
same,"Gastrointestinal Disorders, Incidence Rate","mITT N = 14, PY of MTX = 1.0",6.0 Events/PY of MTX
same,"Gout, Incidence Rate","mITT N = 14, PY of MTX = 1.0",6.0 Events/PY of MTX
same,"Headache, Incidence Rate","mITT N = 14, PY of MTX = 1.0",1.0 Events/PY of MTX
same,"Infections And Infestations, Incidence Rate","mITT N = 14, PY of MTX = 1.0",2.0 Events/PY of MTX
same,"Leukopenia, Incidence Rate","mITT N = 14, PY of MTX = 1.0",1.0 Events/PY of MTX
same,"Metabolism And Nutrition Disorders, Incidence Rate","mITT N = 14, PY of MTX = 1.0",6.0 Events/PY of MTX
same,"Nasopharyngitis, Incidence Rate","mITT N = 14, PY of MTX = 1.0",1.0 Events/PY of MTX
same,"Nausea, Incidence Rate","mITT N = 14, PY of MTX = 1.0",2.0 Events/PY of MTX
same,"Nervous System Disorders, Incidence Rate","mITT N = 14, PY of MTX = 1.0",1.0 Events/PY of MTX
same,"Neutropenia, Incidence Rate","mITT N = 14, PY of MTX = 1.0",1.0 Events/PY of MTX
same,"Pruritus, Incidence Rate","mITT N = 14, PY of MTX = 1.0",1.0 Events/PY of MTX
same,"Respiratory, Thoracic And Mediastinal Disorders, Incidence Rate","mITT N = 14, PY of MTX = 1.0",1.0 Events/PY of MTX
same,"Skin And Subcutaneous Tissue Disorders, Incidence Rate","mITT N = 14, PY of MTX = 1.0",1.0 Events/PY of MTX
